In the NIST ThermoML archive (doi:10.1021/acs.jced.6b00640):

Experiment: xn = mol fraction of the nth substance listed
Details: 100 kPa, Liquid; for viscosity: Concentric cylinders viscometry; for mass density: Vibrating tube method

CCOC(=O)CCC(=O)OCC [diethyl butanedioate] + CCCC(=O)OCC
Details	mass density, 288.15 K [kg/m3]	mass density, 293.15 K [kg/m3]	mass density, 298.15 K [kg/m3]	mass density, 303.15 K [kg/m3]	viscosity, 288.15 K [mPa·s]	viscosity, 293.15 K [mPa·s]	viscosity, 298.15 K [mPa·s]	viscosity, 303.15 K [mPa·s]
x2 = 0.0999	1032.25	1027.04	1021.84	1016.65	2.784	2.464	2.202	1.983
x2 = 0.2	1018.97	1013.76	1008.55	1003.35	2.407	2.146	1.932	1.749
x2 = 0.3003	1004.96	999.74	994.54	989.33	2.07	1.859	1.684	1.535
x2 = 0.3999	990.34	985.12	979.9	974.68	1.782	1.613	1.471	1.347
x2 = 0.5	974.86	969.64	964.41	959.18	1.537	1.402	1.286	1.185
x2 = 0.5997	958.7	953.46	948.23	942.99	1.334	1.225	1.131	1.048
x2 = 0.7	941.56	936.32	931.08	925.83	1.162	1.077	1.002	0.9351
x2 = 0.7999	923.5	918.25	913	907.74	1.015	0.9435	0.8815	0.8255
x2 = 0.8999	904.39	899.13	893.87	888.59	0.8744	0.8176	0.7679	0.7228
